# Measured values reported in PubChem BioAssay AID248 (DTP/NCI, 2004).
# Where “and” joins values, the source holds several entries; their conditions need not be identical. Identical values can stand only once. Inconclusive results and toxic doses are left out.
# Tested on: L1210 leukemia ip in BDF1 mice, survival T/C
# Assay: NCI In Vivo Anticancer Drug Screen. Data for tumor model L1210 Leukemia (intraperitoneal) in B6D2F1 (BDF1) mice
# Conditions: endpoint: mean survival time, higher = longer survival
# In short: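 Each compound was tested against a transplantable tumor grown in mice. The endpoint was survival, with treated animals benchmarked against vehicle controls as a simple ratio.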
# [1] = dose: 100.0 mg/kg/injection, schedule: Q04DX003 (ip), vehicle: saline with Tween-80
# [2] = dose: 200.0 mg/kg/injection, schedule: Q04DX003 (ip), vehicle: saline with Tween-80
# [3] = dose: 400.0 mg/kg/injection, schedule: Q04DX003 (ip), vehicle: saline with Tween-80
# [4] = dose: 50.0 mg/kg/injection, schedule: Q01DX009 (ip), vehicle: Klucel (hydroxypropylcellulose) (HPC)
# [5] = dose: 25.0 mg/kg/injection, schedule: Q04DX002 (ip), vehicle: Klucel (hydroxypropylcellulose) (HPC)
# [6] = dose: 50.0 mg/kg/injection, schedule: Q04DX002 (ip), vehicle: Klucel (hydroxypropylcellulose) (HPC)
# [7] = dose: 100.0 mg/kg/injection, schedule: Q04DX002 (ip), vehicle: Klucel (hydroxypropylcellulose) (HPC)
# [8] = dose: 100.0 mg/kg/injection, schedule: Q01DX009 (ip), vehicle: Klucel (hydroxypropylcellulose) (HPC)
# [9] = dose: 100.0 mg/kg/injection, schedule: Q04DX003 (ip), vehicle: Klucel (hydroxypropylcellulose) (HPC)
# [10] = dose: 200.0 mg/kg/injection, schedule: Q04DX003 (ip), vehicle: Klucel (hydroxypropylcellulose) (HPC)
# [11] = dose: 100.0 mg/kg/injection, schedule: Q01DX001 (ip), vehicle: saline
compound,measurement,setting,value
CN1C(=O)CC(NC(=O)OCc2ccccc2)C1=O (stereo not drawn),T/C,[1],95 % of control
same,T/C,[2],103 % of control
same,T/C,[3],96 % of control
O=C(Nc1ccc(CCO)cc1)Nc1cc([N+](=O)[O-])ccc1Cl,T/C,"dose: 12.5 mg/kg/injection, schedule: Q01DX009 (ip), vehicle: Klucel (hydroxypropylcellulose) (HPC)",102 % of control
same,T/C,"dose: 25.0 mg/kg/injection, schedule: Q01DX009 (ip), vehicle: Klucel (hydroxypropylcellulose) (HPC)",104 % of control
same,T/C,[4],91 % of control
CNC(=O)Oc1cccc2c1OC(C)(C)C2,T/C,"dose: 1.56 mg/kg/injection, schedule: Q01DX001 (ip), vehicle: Klucel (hydroxypropylcellulose) (HPC)",96 % of control
same,T/C,"dose: 3.13 mg/kg/injection, schedule: Q01DX001 (ip), vehicle: Klucel (hydroxypropylcellulose) (HPC)",103 % of control
O=[N+]([O-])c1ncn[nH]1,T/C,"dose: 100.0 mg/kg/injection, schedule: Q01DX009 (ip), vehicle: saline with Tween-80",96 % of control
same,T/C,[1],102 % of control
same,T/C,[2],97 % of control
same,T/C,"dose: 400.0 mg/kg/injection, schedule: Q01DX009 (ip), vehicle: saline with Tween-80",87 % of control
same,T/C,[3],92 % of control
O=C1OCC/C1=C\N1CCCCC1,T/C,[5],113 % of control
same,T/C,[6],98 % of control
same,T/C,[7],98 % of control and 101 % of control
CCCCCCCCCCCCCCC(F)C(=O)O (stereo not drawn),T/C,[4],96 % of control
same,T/C,[8],101 % of control
same,T/C,[9],92 % of control
same,T/C,[10],91 % of control
COc1ccc(NC(=O)COc2ccc(Cl)cc2Cl)cc1,T/C,[7],108 % of control
same,T/C,"dose: 200.0 mg/kg/injection, schedule: Q04DX002 (ip), vehicle: Klucel (hydroxypropylcellulose) (HPC)",92 % of control
same,T/C,"dose: 400.0 mg/kg/injection, schedule: Q04DX002 (ip), vehicle: Klucel (hydroxypropylcellulose) (HPC)",94 % of control
CCOC(=O)c1cnc(NN)nc1Nc1cc(Cl)cc(Cl)c1,T/C,[2],90 % of control
CCCC1(CC)C(=O)N=C(N)NC1=O (stereo not drawn),T/C,"dose: 25.0 mg/kg/injection, schedule: Q01DX001 (ip), vehicle: Klucel (hydroxypropylcellulose) (HPC)",95 % of control
same,T/C,"dose: 50.0 mg/kg/injection, schedule: Q01DX001 (ip), vehicle: Klucel (hydroxypropylcellulose) (HPC)",104 % of control
CCCCCCCCCCCSCCSCCSCCCCCCCCCCC,T/C,"dose: 100.0 mg/kg/injection, schedule: Q01DX001 (ip), vehicle: Klucel (hydroxypropylcellulose) (HPC)",88 % of control
same,T/C,"dose: 200.0 mg/kg/injection, schedule: Q01DX001 (ip), vehicle: Klucel (hydroxypropylcellulose) (HPC)",95 % of control
same,T/C,"dose: 400.0 mg/kg/injection, schedule: Q01DX001 (ip), vehicle: Klucel (hydroxypropylcellulose) (HPC)",90 % of control
O=C1C(NCC(O)CO)=C(N2CC2)C(=O)C(NCC(O)CO)=C1N1CC1 (stereo not drawn),T/C,"dose: 0.12 mg/kg/injection, schedule: Q04DX003 (ip), vehicle: saline",106 % of control
same,T/C,"dose: 0.25 mg/kg/injection, schedule: Q01DX009 (ip), vehicle: saline",119 % of control and 120 % of control
same,T/C,"dose: 0.25 mg/kg/injection, schedule: Q04DX003 (ip), vehicle: saline",106 % of control
same,T/C,"dose: 0.5 mg/kg/injection, schedule: Q01DX009 (ip), vehicle: saline",120 % of control and 121 % of control
same,T/C,"dose: 0.5 mg/kg/injection, schedule: Q04DX003 (ip), vehicle: saline",112 % of control
same,T/C,"dose: 1.0 mg/kg/injection, schedule: Q01DX009 (ip), vehicle: saline",156 % of control
same,T/C,"dose: 1.0 mg/kg/injection, schedule: Q04DX003 (ip), vehicle: saline",104 % of control
same,T/C,"dose: 2.0 mg/kg/injection, schedule: Q01DX001 (ip), vehicle: saline",189 % of control
same,T/C,"dose: 2.0 mg/kg/injection, schedule: Q01DX009 (ip), vehicle: saline",216 % of control and 233 % of control
same,T/C,"dose: 2.0 mg/kg/injection, schedule: Q04DX003 (ip), vehicle: saline",161 % of control
same,T/C,"dose: 4.0 mg/kg/injection, schedule: Q01DX001 (ip), vehicle: saline",153 % of control
same,T/C,"dose: 4.0 mg/kg/injection, schedule: Q01DX009 (ip), vehicle: saline",199 % of control and 306 % of control
same,T/C,"dose: 4.0 mg/kg/injection, schedule: Q04DX003 (ip), vehicle: saline",173 % of control and 190 % of control
same,T/C,"dose: 8.0 mg/kg/injection, schedule: Q01DX009 (ip), vehicle: saline",98 % of control and 102 % of control
same,T/C,"dose: 8.0 mg/kg/injection, schedule: Q04DX003 (ip), vehicle: saline",179 % of control
O=C(Nc1ccc(Br)cc1)Nc1cc([N+](=O)[O-])ccc1F,T/C,[9],89 % of control
same,T/C,[10],91 % of control
same,T/C,"dose: 400.0 mg/kg/injection, schedule: Q04DX003 (ip), vehicle: Klucel (hydroxypropylcellulose) (HPC)",102 % of control
Cc1cc2c(-c3ccccc3)nc3ccccc3n2c1Cl,T/C,[4],92 % of control
same,T/C,[8],95 % of control
same,T/C,"dose: 200.0 mg/kg/injection, schedule: Q01DX009 (ip), vehicle: Klucel (hydroxypropylcellulose) (HPC)",103 % of control
CC(=O)c1ccc(N2CCN(C)CC2)cc1,T/C,"dose: 50.0 mg/kg/injection, schedule: Q01DX001 (ip), vehicle: saline",100 % of control
same,T/C,[11],102 % of control
Clc1ccccc1-c1nc2ccccc2cc1Cl,T/C,[11],92 % of control
same,T/C,"dose: 200.0 mg/kg/injection, schedule: Q01DX001 (ip), vehicle: saline",88 % of control
same,T/C,"dose: 400.0 mg/kg/injection, schedule: Q01DX001 (ip), vehicle: saline",94 % of control
O=C(O)C12CCC(CC1)C1CCC2CC1,T/C,"dose: 12.5 mg/kg/injection, schedule: Q04DX002 (ip), vehicle: Klucel (hydroxypropylcellulose) (HPC)",101 % of control
same,T/C,[5],105 % of control
same,T/C,[6],116 % of control
CC[N+]1(CC)CCC(OC(=O)C(O)(c2ccccc2)c2ccccc2)C1 (stereo not drawn),T/C,"dose: 5.0 mg/kg/injection, schedule: Q01DX001 (ip), vehicle: saline",97 % of control
same,T/C,"dose: 10.0 mg/kg/injection, schedule: Q01DX001 (ip), vehicle: saline",92 % of control
same,T/C,"dose: 20.0 mg/kg/injection, schedule: Q01DX001 (ip), vehicle: saline",97 % of control
same,T/C,"dose: 40.0 mg/kg/injection, schedule: Q01DX001 (ip), vehicle: saline",97 % of control
same,T/C,"dose: 80.0 mg/kg/injection, schedule: Q01DX001 (ip), vehicle: saline",103 % of control
